According to the supplement of paper PMC10307832:

Columns and labels:
Assay in all cases: relative viability (nuclei count vs DMSO), 5 days (fraction); higher = more cells survive
Cediranib + Decitabine = compound: COc1cc2c(Oc3ccc4[nH]c(C)cc4c3F)ncnc2cc1OCCCN1CCCC1 [Cediranib] + Nc1ncn([C@H]2C[C@H](O)[C@@H](CO)O2)c(=O)n1 [Decitabine] (partner 2 µM)
Method in brief: (§1)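 Each reported value is a median over duplicate plates. It expresses relative viability: treated-well nuclei count divided by vehicle-well nuclei count. Lung cancer cell lines in 1536-well plates were dosed by pin tool a day after seeding, alone with one drug or with a fixed anchor-drug dose plus five library-drug doses (not always all listed) in √10 steps, and nuclei were counted after 5 days.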

Cediranib + Olaparib = compound: COc1cc2c(Oc3ccc4[nH]c(C)cc4c3F)ncnc2cc1OCCCN1CCCC1 [Cediranib] + O=C(c1cc(Cc2n[nH]c(=O)c3ccccc23)ccc1F)N1CCN(C(=O)C2CC2)CC1 [Olaparib] (partner 8 µM)
Method in brief: as §1

Decitabine + Tozasertib = compound: Nc1ncn([C@H]2C[C@H](O)[C@@H](CO)O2)c(=O)n1 [Decitabine] + Cc1cc(Nc2cc(N3CCN(C)CC3)nc(Sc3ccc(NC(=O)C4CC4)cc3)n2)n[nH]1 [Tozasertib] (partner 0.1 µM)
Method in brief: as §1

Halofuginone + Dasatinib = compound: O=C(C[C@H]1NCCC[C@@H]1O)Cn1cnc2cc(Br)c(Cl)cc2c1=O (racemic) [Halofuginone] + Cc1nc(Nc2ncc(C(=O)Nc3c(C)cccc3Cl)s2)cc(N2CCN(CCO)CC2)n1 [Dasatinib] (partner 0.075 µM)
Method in brief: as §1

| Cell Line | relative viability (Cediranib + Decitabine; first compound 0.04 µM) | relative viability (Cediranib + Decitabine; first compound 0.1265 µM) | relative viability (Cediranib + Decitabine; first compound 0.4 µM) | relative viability (Cediranib + Decitabine; first compound 1.265 µM) | relative viability (Cediranib + Decitabine; first compound 4 µM) | relative viability (Cediranib + Olaparib; first compound 0.04 µM) | relative viability (Cediranib + Olaparib; first compound 0.1265 µM) | relative viability (Cediranib + Olaparib; first compound 0.4 µM) | relative viability (Cediranib + Olaparib; first compound 1.265 µM) | relative viability (Cediranib + Olaparib; first compound 4 µM) | relative viability (Decitabine + Tozasertib; first compound 0.04 µM) | relative viability (Decitabine + Tozasertib; first compound 0.1265 µM) | relative viability (Decitabine + Tozasertib; first compound 0.4 µM) | relative viability (Decitabine + Tozasertib; first compound 4 µM) | relative viability (Halofuginone + Dasatinib; first compound 0.001 µM) | relative viability (Halofuginone + Dasatinib; first compound 0.003162 µM) | relative viability (Halofuginone + Dasatinib; first compound 0.01 µM) | relative viability (Halofuginone + Dasatinib; first compound 0.03162 µM) | relative viability (Halofuginone + Dasatinib; first compound 0.1 µM) | relative viability (Decitabine + Tozasertib; first compound 1.265 µM) |
| --- | --- | --- | --- | --- | --- | --- | --- | --- | --- | --- | --- | --- | --- | --- | --- | --- | --- | --- | --- | --- |
| 201T | 0.876 | 0.89 | 0.889 | 0.868 | 0.878 | 0.805 | 0.862 | 0.808 | 0.829 | 0.828 | 0.742 | 0.776 | 0.909 | 0.587 | 0.595 | 0.586 | 0.572 | 0.543 | 0.306 | – |
| A549 | 0.449 | 0.115 | 0.272 | 0.258 | 0.319 | 0.353 | 0.23 | 0.302 | 0.333 | 0.473 | – | – | – | – | – | – | – | – | – | – |
| A-427 | 0.566 | – | 0.537 | 0.537 | 0.66 | 0.802 | – | 0.668 | 0.67 | 0.753 | 0.195 | 0.136 | 0.118 | 0.135 | 0.744 | 0.773 | 0.678 | 0.723 | 0.643 | 0.123 |
| ABC-1 | 0.866 | 1.11 | 1.19 | 1.05 | 1.04 | 0.875 | 0.997 | 0.823 | 1.14 | 0.726 | 0.211 | 0.185 | 0.174 | 0.21 | 0.586 | 0.626 | 0.453 | 0.476 | 0.487 | 0.195 |
| BEN | 0.732 | 0.431 | 0.74 | 0.509 | 0.722 | 1.11 | 0.613 | 1.05 | 1.13 | 1.04 | 0.443 | 0.454 | 0.421 | 0.355 | 0.345 | 0.318 | 0.331 | 0.36 | 0.229 | 0.371 |
| CAL-12T | – | – | – | – | – | 0.815 | 0.646 | 0.647 | 0.74 | 0.786 | 0.292 | 0.268 | – | 0.219 | 0.685 | 0.396 | 0.377 | 0.282 | 0.154 | 0.21 |
| COR-L23 | 0.528 | 0.44 | 0.402 | 0.332 | 0.484 | 0.429 | 0.333 | 0.291 | 0.377 | 0.309 | 0.134 | 0.158 | 0.158 | 0.128 | 0.617 | 0.481 | 0.535 | 0.311 | 0.083 | 0.123 |
| COR-L 105 | 0.65 | 0.676 | 0.629 | 0.601 | 0.729 | 0.737 | 0.657 | 0.715 | 0.707 | 0.687 | 0.378 | 0.336 | 0.36 | 0.237 | 0.387 | 0.353 | 0.316 | 0.257 | 0.234 | 0.365 |
| Calu-6 | – | – | – | – | – | 0.592 | 0.566 | 0.599 | 0.582 | 0.56 | – | – | – | – | – | – | – | – | – | – |
| ChaGo-K-1 | 0.51 | 0.376 | 0.506 | 0.57 | 0.784 | 0.403 | 0.307 | 0.403 | 0.424 | 0.41 | 0.23 | 0.238 | 0.189 | 0.208 | 0.502 | 0.602 | 0.607 | 0.622 | 0.6 | 0.176 |
| EBC-1 | – | – | – | – | – | 0.715 | 0.744 | 0.668 | 0.786 | 0.88 | – | – | – | – | – | – | – | – | – | – |
| EKVX | 0.332 | 0.342 | 0.341 | – | 0.392 | 0.783 | 0.949 | 0.803 | – | 0.851 | 0.283 | 0.266 | 0.247 | 0.148 | 0.522 | 0.445 | 0.662 | 0.605 | 0.418 | 0.166 |
| EMC-BAC-2 | 0.953 | – | 0.989 | 0.918 | 1.04 | 0.474 | – | 0.476 | 0.502 | 0.402 | 0.274 | 0.266 | 0.27 | 0.271 | 0.362 | 0.343 | 0.301 | 0.298 | 0.163 | 0.251 |
| HCC-44 | 0.932 | 0.629 | 0.93 | 0.934 | 0.958 | 0.966 | 0.894 | 0.963 | 0.932 | 0.974 | – | 1.01 | 0.174 | 0.382 | – | – | – | – | – | 0.457 |
| IA-LM | – | – | – | – | – | 0.993 | 0.848 | 0.824 | 0.867 | 1.02 | – | – | – | – | – | – | – | – | – | – |
| NCI-H1299 | – | – | – | – | – | 0.999 | 0.96 | 0.92 | 0.949 | 0.97 | – | – | – | – | – | – | – | – | – | – |
| NCI-H1563 | – | – | – | – | – | – | – | – | – | – | – | – | – | – | 0.477 | 0.432 | 0.418 | 0.487 | 0.408 | – |
| NCI-H1623 | – | – | – | – | – | – | – | – | – | – | 0.401 | 0.422 | 0.367 | 0.305 | 0.588 | 0.43 | 0.523 | 0.468 | 0.394 | 0.373 |
| NCI-H1648 | 0.44 | 0.501 | 0.448 | 0.48 | 0.481 | 0.519 | 0.824 | 0.901 | 1.2 | 1.31 | 0.519 | 0.402 | 0.321 | 0.184 | – | – | – | – | – | 0.172 |
| NCI-H1703 | – | – | – | – | – | 0.389 | 0.388 | 0.173 | 0.163 | 0.243 | – | – | – | – | – | – | – | – | – | – |
| NCI-H1792 | – | 0.503 | 0.48 | 0.501 | 0.715 | – | 0.713 | 0.321 | 0.435 | 0.557 | – | – | – | – | 0.973 | 0.791 | 0.844 | 0.76 | 0.607 | – |
| NCI-H2228 | – | – | – | – | – | 0.801 | 1.02 | 0.642 | 0.707 | 0.556 | 0.176 | 0.207 | 0.134 | 0.104 | 0.622 | 0.488 | 0.48 | 0.236 | 0.0746 | 0.114 |
